In ChEMBL document CHEMBL3045609, “Synthesis and fungicidal activity of tubulin polymerisation promoters. Part 1: pyrido[2,3-b]pyrazines” (2010):
Converted amounts (≈) assume the structure as drawn.

Key:
Type in all cases: functional
[1] = tested on: Zymoseptoria tritici; test: Antifungal activity against Zymoseptoria tritici infected 2 weeks old wheat plant assessed as reduction of diseased leaf area treated 1 day before infection measured after 16 to 18 days
[2] = tested on: Puccinia triticina; test: Antifungal activity against Puccinia triticina infected 2 weeks old wheat plant assessed as reduction of diseased leaf area treated 1 day before infection measured after 11 days
[3] = tested on: Pyricularia grisea; test: Antifungal activity against Magnaporthe grisea infected 3 weeks old rice plant assessed as reduction of diseased leaf area treated 2 days before infection measured after 6 days

Compound | EC80 [1] [mg/L] | EC80 [2] [mg/L] | EC80 [3] [mg/L]
CC(C)[C@@H](C)Nc1c(-c2c(F)cc(F)cc2F)c(F)nc2nccnc12 | < 2 | < 6 | 11 (≈ 30.2 µM)
CCC(C)Nc1c(-c2c(F)cc(F)cc2F)c(F)nc2nccnc12 (configuration not stated) | 26 (≈ 74.2 µM) | 56 (≈ 160 µM) | 9 (≈ 25.7 µM)
CC(C)C(C)Nc1c(-c2c(F)cc(F)cc2F)c(F)nc2nccnc12 (configuration not stated) | 15 (≈ 41.2 µM) | < 20 | 26 (≈ 71.4 µM)
COc1nc2nccnc2c(NCC(C)C)c1-c1ncc(Cl)cc1F | 10 (≈ 27.6 µM) | > 200 | 29 (≈ 80.2 µM)
COc1nc2nccnc2c(NCC(C)C)c1-c1c(F)cc(F)cc1F | 50 (≈ 138 µM) | 35 (≈ 96.6 µM) | 42 (≈ 116 µM)
CCC(Nc1c(-c2c(F)cc(F)cc2F)c(F)nc2nccnc12)C(F)(F)F (configuration not stated) | < 2 | 10 (≈ 24.7 µM) | 10 (≈ 24.7 µM)
COc1nc2nccnc2c(N[C@H](C)C(C)C)c1-c1ncc(Cl)cc1Cl | < 6 | 26 (≈ 66.3 µM) | 15 (≈ 38.2 µM)
COc1nc2nccnc2c(NCC(C)C)c1C#Cc1ccccc1 | 67 (≈ 202 µM) | > 200 | > 200
CC(C)CNc1c(-c2cccc(F)c2F)c(F)nc2nccnc12 | 74 (≈ 223 µM) | 157 (≈ 472 µM) | > 200
Fc1cc(F)c(-c2c(F)nc3nccnc3c2NC(C2CC2)C(F)(F)F)c(F)c1 (configuration not stated) | < 6 | 16 (≈ 38.4 µM) | 104 (≈ 250 µM)
CC(C)[C@@H](C)Nc1c(-c2c(F)cc(F)cc2F)c(Cl)nc2nccnc12 | 47 (≈ 123 µM) | 77 (≈ 202 µM) | > 200
COc1nc2nccnc2c(N[C@H](C)C(C)C)c1-c1c(F)cc(F)cc1F | 32 (≈ 85 µM) | 129 (≈ 343 µM) | 100 (≈ 266 µM)
COc1nc2nccnc2c(NCC(C)C)c1-c1c(F)cccc1Cl | > 200 | 134 (≈ 371 µM) | 110 (≈ 305 µM)
CC(C)(C)Nc1c(-c2c(F)cc(F)cc2F)c(F)nc2nccnc12 | 19 (≈ 54.2 µM) | > 200 | 35 (≈ 99.9 µM)
COC(=O)[C@@H](Nc1c(-c2c(F)cc(F)cc2F)c(F)nc2nccnc12)C(C)C | 7 (≈ 17.1 µM) | < 6 | 57 (≈ 140 µM)
Fc1cc(F)c(-c2c(F)nc3nccnc3c2NCC(F)(F)F)c(F)c1 | 16 (≈ 42.5 µM) | 20 (≈ 53.2 µM) | 11 (≈ 29.2 µM)
C=CCOC(=O)[C@@H](Nc1c(-c2c(F)cc(F)cc2F)c(F)nc2nccnc12)C(C)C | 21 (≈ 48.3 µM) | 31 (≈ 71.4 µM) | 110 (≈ 253 µM)
C[C@H](Nc1c(-c2c(F)cc(F)cc2F)c(F)nc2nccnc12)C(F)(F)F | 5 (≈ 12.8 µM) | 39 (≈ 99.9 µM) | 35 (≈ 89.7 µM)
CC(C)CNc1c(-c2cc(F)ccc2F)c(F)nc2nccnc12 | 80 (≈ 241 µM) | 118 (≈ 355 µM) | > 200
